These results are taken from patent publication US20090291945A1, “CYSTEINE PROTEASE INHIBITORS” (Teijin Pharma Limited, priority 2008, published 2009).

The assay addresses T1, cathepsin K (Homo sapiens, UniProt P43235).
T1 construct: the active enzyme was obtained as the enzyme fraction by using detergent containing lysis buffer; made in house; host or cells: HEK293T (GenHunter Corporation), transient expression; detergent lysate used as enzyme fraction
T1 sequence (P43235 115-329): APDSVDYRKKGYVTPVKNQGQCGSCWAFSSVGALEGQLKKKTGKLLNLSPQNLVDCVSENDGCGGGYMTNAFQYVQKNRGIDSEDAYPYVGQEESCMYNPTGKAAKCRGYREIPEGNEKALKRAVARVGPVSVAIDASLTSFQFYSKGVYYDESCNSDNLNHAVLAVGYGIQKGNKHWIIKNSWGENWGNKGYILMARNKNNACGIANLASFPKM
As to the kind of experiment: Cathepsin K inhibitory activity (fluorescent substrate Z-Leu-Arg-MCA). The format is biochemical. To be noted: enzyme expressed in HEK293T; 15 min preincubation, 30 min reaction at room temperature, pH 5.5; read-out: Activity Intensity (cathepsin K inhibitory activity, pIC50 class) (converted). The procedure:
Cathepsin K inhibitory activities of the compounds synthesized according to the methods of the above examples were measured.
Cathepsin K used for evaluation of inhibitory activity was transiently expressed in an animal cell HEK293T (made by GenHunter Corporation) and the active enzyme was obtained as the enzyme fraction by using detergent containing lysis buffer.
The enzyme solution A was prepared at 2.1 times final concentration by diluting the enzyme fraction with assay buffer (50 mM sodium acetate, 50 mM sodium chloride, 2 mM DTT, pH 5.5). The test compound solutions B were prepared at 50 times final target concentrations by dimethylsulfoxide (DMSO). As a substrate solution C, a solution of a fluorescent substrate, benzyloxycarbonyl-L-leucyl-L-arginyl-4-methyl-coumaryl-7-amide (Z-Leu-Arg-MCA (Peptide Institute Inc.), was prepared at 10 μM by an assay buffer.
To the enzyme solution A (38.4 μL) were added the test compound solutions B (1.6 μL) and mixed individually. The mixtures were incubated at room temperature for 15 minutes. To the incubated solutions were added the substrate solution C (40 μL) and the mixtures were reacted at room temperature for 30 minutes respectively. The fluorescence intensities of the enzyme reaction solutions were measured at excitation wavelength of 355 nm and measurement wavelength of 460 nm and the enzyme activities were calculated from these fluorescence intensities caused by 7-amino-4-methylcoumarine released. The enzyme activity with using DMSO instead of the test compound solution B was taken as 100% and the inhibitory rates at each concentration of the test compound were calculated. The […] response curve was fitted to the plots. The 50% inhibitory concentration against cathepsin K was calculated from this curve.
Note that the symbols (+, ++, and +++) in this table represent the inhibitory activity values as below. Here, pIC50 is the value representing a negative logarithm of IC50, (−log10(IC50)). IC50 is a 50% inhibitory concentration.

Take `CC(C)C[C@H](N[C@@H](c1ccccc1)C(F)(F)F)C(=O)N[C@@H](CCCO)CNc1ccc(N2CCOCC2)cc1` [Compound 125]: the IC50 was 31.6 to 10000 nM.
The result for `CC(C)C[C@H](N[C@@H](c1ccccc1)C(F)(F)F)C(=O)N[C@@H](C)CNc1ccc(N2CCOCC2)cc1` [Compound 71] reads not above 3.16 nM.
Consider `CC[C@@H](CNc1ccc(OC)cc1OC)NC(=O)[C@H](CC(C)(C)F)N[C@@H](c1ccc(Br)cc1)C(F)(F)F` [Compound 6], for which the IC50 is not above 3.16 nM.
The same measure for `CC(C)C[C@H](N[C@@H](c1ccccc1)C(F)(F)F)C(=O)N[C@@H](CN)CNc1ccc(N2CCOCC2)cc1` [Compound 128]: 3.16 to 31.6 nM; for `CC[C@@H](CNc1ccc(OCCS(C)(=O)=O)cc1OC)NC(=O)[C@H](CC(C)(C)F)N[C@@H](c1ccc(Br)cc1)C(F)(F)F` [Compound 138-2, (2S)-2-{[(1S)-1-(4-bromophenyl)-2,2,2-trifluoroethyl]amino}-N-{(1S)-1-[({2-methoxy-4-[2-(methylsulfonyl)ethoxy]phenyl}amino)methyl]propyl}-4-fluoro-4-methylpentanamide]: not above 3.16 nM.
For the compound `CC[C@@H](CNc1ccc(-n2ccnc2)cc1)NC(=O)[C@H](CC(C)C)N[C@@H](c1ccc(OC)nc1)C(F)(F)F` [Compound 113], the IC50 is 31.6 to 10000 nM.
The result for `CC[C@@H](CNc1ccc(OCC(=O)NCCO)cc1OC)NC(=O)[C@H](CC(C)(C)F)N[C@@H](c1ccccc1)C(F)(F)F` [Compound 137] reads not above 3.16 nM.
The same measure for `CC[C@@H](CNc1ccc(OC)cc1OC)NC(=O)[C@H](CC(C)C)N[C@@H](c1ccc(S(C)(=O)=O)cc1)C(F)(F)F` [Compound 23]: not above 3.16 nM; for `COc1ccc(NC[C@H](CCS(C)(=O)=O)NC(=O)[C@H](CC(C)C)N[C@@H](c2ccccc2)C(F)(F)F)c(OC)c1` [Compound 80]: 3.16 to 31.6 nM; for `CC[C@@H](CNc1ccc2c(c1)OCO2)NC(=O)[C@H](CC(C)C)N[C@@H](c1ccccc1)C(F)(F)F` [Compound 99]: 31.6 to 10000 nM.
On to `CC(C)C[C@H](N[C@@H](c1ccccc1)C(F)(F)F)C(=O)N[C@@H](CCC#N)CNc1ccc(N2CCOCC2)cc1` [Compound 92], for which the IC50 was not above 3.16 nM.
On to `CC[C@@H](CNc1ccc(OC)cc1OC)NC(=O)[C@H](CC(C)C)N[C@@H](c1ccc(=O)n(C)c1)C(F)(F)F` [Compound 44], for which the IC50 is 3.16 to 31.6 nM.
Take `CC[C@@H](CNc1ccc(OCCS(C)(=O)=O)cc1OC)NC(=O)[C@H](CC(C)C)N[C@@H](c1ccc(OC)nc1)C(F)(F)F` [Compound 38]: the IC50 is 3.16 to 31.6 nM.
With `CC[C@@H](CNc1ccc(OCCCCC(=O)O)cc1OC)NC(=O)[C@H](CC(C)C)N[C@@H](c1ccccc1)C(F)(F)F` [Compound 156], the IC50 is not above 3.16 nM.
With `CC[C@@H](CNc1ccc(N2CCOCC2)cc1)NC(=O)C1(NC(c2ccccc2)C(F)(F)F)CCCCC1` (stereo partly drawn) [Compound 11, N-((1S)-1-{[(4-morpholin-1-ylphenyl)amino]methyl}propyl) {[(2,2,2-trifluoro-1-phenylethyl)amino]cyclohexyl}carboxamide], the IC50 was 3.16 to 31.6 nM.
For the compound `CC[C@@H](CNc1ccc(OCc2ccccc2)cc1)NC(=O)[C@H](CC(C)C)N[C@@H](c1ccc(OC)cc1)C(F)(F)F` [Compound 97], the IC50 is 3.16 to 31.6 nM.
The same measure for `CC[C@@H](CNc1ccc(OCC(=O)N(C)OC)cc1OC)NC(=O)[C@H](CC(C)C)N[C@@H](c1ccccc1)C(F)(F)F` [Compound 89]: not above 3.16 nM; for `CC(C)C[C@H](N[C@@H](c1ccccc1)C(F)(F)F)C(=O)N[C@@H](CCCC(=O)OC(C)(C)C)CNc1ccc(N2CCOCC2)cc1` [Compound 91]: not above 3.16 nM.
As to `CC[C@@H](CNc1ccc(N2CCOCC2)cc1)NC(=O)[C@H](CC(C)C)N[C@@H](c1ccc(S(C)(=O)=O)cc1)C(F)(F)F` [Compound 24], the IC50 is not above 3.16 nM.
Regarding `CC[C@@H](CNc1ccc(OCC#N)cc1OC)NC(=O)[C@H](CC(C)(C)F)N[C@@H](c1ccccc1)C(F)(F)F` [Compound 161, (2S)—N-[(1S)-1-({[4-(cyanomethoxy)-2-methoxyphenyl]amino}methyl)propyl]-2-[((1S)-2,2,2-trifluoro-1-phenylethyl)amino]-4-fluoro-4-methylpentanamide], the IC50 was not above 3.16 nM.
The result for `CC[C@@H](CNc1ccc(-n2nccc2C(=O)O)cc1)NC(=O)[C@H](CC(C)C)N[C@@H](c1ccccc1)C(F)(F)F` [Compound 143] reads 31.6 to 10000 nM.
As for `CC[C@@H](CNc1ccc(OCc2ccccc2)cc1)NC(=O)[C@H](CC(C)C)N[C@@H](c1ccccc1)C(F)(F)F` [Compound 96], the IC50 is 3.16 to 31.6 nM.
As for `CC[C@@H](CNc1ccc(N(C)C)cc1)NC(=O)[C@H](CC(C)(C)F)N[C@@H](c1ccc(-c2ccc(S(C)(=O)=O)cc2)cc1)C(F)(F)F` [Compound 12], the IC50 was not above 3.16 nM.
For `CCOC(=O)C1CCN(c2ccc(NC[C@H](CC)NC(=O)[C@H](CC(C)C)N[C@@H](c3ccc(OC)nc3)C(F)(F)F)cc2)CC1` [Compound 50], the IC50 was not above 3.16 nM.
On to `CC[C@@H](CNc1ccc(N(C)C)cc1)NC(=O)C1(NC(c2ccccc2)C(F)(F)F)CCCCC1` (some centres unmarked) [Compound 14], for which the IC50 was 31.6 to 10000 nM.
For `COc1ccc(NC[C@H](CC(C)C)NC(=O)[C@H](CC(C)C)N[C@@H](c2ccccc2)C(F)(F)F)c(OC)c1` [Compound 64], the IC50 was not above 3.16 nM.
Take `CC[C@@H](CNc1ccc(-n2cccn2)cc1)NC(=O)[C@H](CC(C)C)N[C@@H](c1ccc(OC)nc1)C(F)(F)F` [Compound 48]: the IC50 is 31.6 to 10000 nM.
As to `CC(C)C[C@H](N[C@@H](c1ccccc1)C(F)(F)F)C(=O)N[C@@H](CNC(=O)OCc1ccccc1)CNc1ccc(N2CCOCC2)cc1` [Compound 104], the IC50 was not above 3.16 nM.
`CC[C@@H](CNc1ccc(OCCS(C)(=O)=O)cc1OC)NC(=O)[C@H](CC(C)C)N[C@@H](c1ccc(S(C)(=O)=O)cc1)C(F)(F)F` [Compound 40]: the IC50 was 3.16 to 31.6 nM.
In the case of `CC[C@@H](CNc1ccc2c(c1)OCO2)NC(=O)[C@H](CC(C)C)N[C@@H](c1ccc(OC)cc1)C(F)(F)F` [Compound 100], the IC50 is 31.6 to 10000 nM.
The result for `CC[C@@H](CNc1c(OC)cccc1OC)NC(=O)[C@H](CC(C)(C)F)N[C@@H](c1ccc(Br)cc1)C(F)(F)F` [Compound 15] reads 3.16 to 31.6 nM; that for `CCOC(=O)c1ccnn1-c1ccc(NC[C@H](CC)NC(=O)[C@H](CC(C)C)N[C@@H](c2ccccc2)C(F)(F)F)cc1` [Compound 114], 31.6 to 10000 nM; that for `CC[C@@H](CNc1ccc(OC)cc1OC)NC(=O)[C@H](Cc1ccccc1)N[C@@H](c1cccs1)C(F)(F)F` [Compound 62], 31.6 to 10000 nM.
For `COc1ccc(NC[C@H](COCc2ccccc2)NC(=O)[C@H](CC(C)(C)F)N[C@@H](c2ccc(-c3ccc(S(C)(=O)=O)cc3)cc2)C(F)(F)F)cc1` [Compound 2, N-{(1R)-2-[(4-methoxyphenyl)amino]-1-[(phenylmethoxy)methyl]ethyl}(2S)-2-[((1S)-2,2,2-trifluoro-1-{4-[4-(methylsulfonyl)phenyl]phenyl}ethyl)amino]-4-fluoro-4-methylpentanamide], the IC50 was 31.6 to 10000 nM.
As for `CC[C@@H](CNc1ccc(N2CCOCC2)cc1)NC(=O)[C@H](CC(C)C)N[C@@H](c1ccc(O)cc1)C(F)(F)F` [Compound 158, (2S)—N-((1S)-1-{[(4-morpholin-4-ylphenyl)amino]methyl}propyl)-2-{[(1S)-2,2,2-trifluoro-1-(4-hydroxyphenyl)ethyl]amino}-4-methylpentanamide], the IC50 was not above 3.16 nM.
Regarding `CC(C)C[C@H](N[C@@H](c1ccccc1)C(F)(F)F)C(=O)N[C@@H](CCNC(=O)OCc1ccccc1)CNc1ccc(N2CCOCC2)cc1` [Compound 105], the IC50 was not above 3.16 nM.
The same measure for `CCOC(=O)CCCCOc1ccc(NC[C@H](CC)NC(=O)[C@H](CC(C)C)N[C@@H](c2ccccc2)C(F)(F)F)c(OC)c1` [Compound 86]: not above 3.16 nM.
The result for `CCOC(=O)C1CCN(c2ccc(NC[C@H](CC)NC(=O)[C@H](CC(C)C)N[C@@H](c3ccccc3)C(F)(F)F)cc2)CC1` [Compound 49] reads not above 3.16 nM; that for `CC[C@@H](CNc1ccc(-n2ccnc2)cc1)NC(=O)[C@H](CC(C)C)N[C@@H](c1ccccc1)C(F)(F)F` [Compound 112], 31.6 to 10000 nM; that for `CC[C@@H](CNc1ccc(OC)cc1OC)NC(=O)[C@H](CC(C)C)N[C@@H](c1ccc(OC)cc1)C(F)(F)F` [Compound 95], not above 3.16 nM.
The same measure for `COc1ccc(NC[C@H](CCS(C)(=O)=O)NC(=O)[C@H](CC(C)C)N[C@@H](c2ccc(S(C)(=O)=O)cc2)C(F)(F)F)c(OC)c1` [Compound 82]: 3.16 to 31.6 nM.
